Experiment [1] deals with T1, human melatonin 1a receptor (ML1aR) (Homo sapiens, UniProt P48039).
T1 construct: expressed in transfected cells; host or cells: S. cerevisiae (CY17353 in A11/A12; aga1 mutant CY19890 in A13), plasmid Cp2695 (PGKp-ML1aR)
Briefly: ELISA of DTT-extracted cell surface Aga2-HA induction (HA.11 antibody, HRP readout). Format: cell-based. The following applies: for HRP activity: yeast cells, Aga2-HA. As to the method:
(§1) The cells (TOD600=1.5) were pelleted, washed with ice-cold 0.15 M sodium chloride, resuspended in 50 microliters of 25 mM Tris-HCl, pH 8.5, supplemented with 10 mM dithiothreitol (DTI) and incubated for1 hour at 4° C. This DTT incubation step reduced the disulfide bonds between the Aga1 and Aga2 proteins, thereby releasing Aga2 into the extracellular medium. After centrifugation, 50 microliter aliquots of the supernatants were subjected to Western blot analysis. Immunoreactive bands corresponding to Aga2-HA were visualized using HA.11 antibodies (BAbCo) as primary antibodies, sheep anti-mouse IgG conjugated with horseradish peroxidase (Amarsham Pharmacia Biotech) as secondary antibodies, and peroxidase substrate (e.g., tetramethyl benzidine (Pierce)) for a visual readout.
(§2) Western blot analysis is a qualitative, rather than quantitative methodology. To determine the induction of expression of the Aga2 protein quantitatively, an ELISA strategy was utilized. Cells were cultured, treated, and the Aga2 protein extracted from the cell surface by DTT incubation, as above. Aliquots of these DTT extracts (50 microliters in the case of cells utilizing the Ste2 receptor and 5 microliters in other cases) were diluted to 100 microliters with 100 mM sodium bicarbonate, pH 9.5. Samples were incubated in 96-well polystyrene plates at 4 degrees C overnight. Plates were washed three times with PBS, pH 7.2 supplemented with 0.1% Tween 20 and blocked with the same buffer containing 3% bovine serum albumin at 37° C. for 1 hr. After blocking, the plates were incubated subsequently with 5000-fold diluted HA.11 antibodies (BAbCo) and 5000-fold diluted sheep anti-mouse IgG conjugated with horseradish peroxidase (Amersham Pharmacia Biotech). Each incubation was conducted at room temperature for 1 hr and was followed by three washes with PBS, pH 7.2, 0.1% Tween 20. The peroxidase activities in each well were determined using tetramethyl benzidine as a substrate.

A further experiment deals with T2, ML1aR (Homo sapiens, UniProt P48039).
T2 construct: expressed in transfected cells; host or cells: S. cerevisiae (CY17353 in A11/A12; aga1 mutant CY19890 in A13), plasmid Cp2695 (PGKp-ML1aR)
T2 sequence (P48039 whole entry): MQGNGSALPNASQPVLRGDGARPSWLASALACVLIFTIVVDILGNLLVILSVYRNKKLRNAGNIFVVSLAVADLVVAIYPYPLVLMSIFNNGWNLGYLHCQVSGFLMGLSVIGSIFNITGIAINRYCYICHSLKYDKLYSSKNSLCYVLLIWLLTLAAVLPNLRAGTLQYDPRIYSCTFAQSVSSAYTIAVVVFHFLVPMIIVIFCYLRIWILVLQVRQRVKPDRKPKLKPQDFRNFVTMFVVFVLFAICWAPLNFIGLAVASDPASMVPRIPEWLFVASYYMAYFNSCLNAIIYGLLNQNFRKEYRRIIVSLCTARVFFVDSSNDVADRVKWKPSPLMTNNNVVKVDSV
Briefly: Scintillation proximity assay of secreted HA-tagged Aga2p (aga1 mutant strain CY19890). The experiment is classed as cell-based. The following applies: 1 μM melatonin. Here is the method:
A particular embodiment of these types of cell-free Aga2 assays is the scintillation proximity assay. In this technique, the extracellular medium potentially containing the Aga2 protein is incubated with antibodies specific for Aga2. These antibodies are also biotinylated, and thus the antibody-Aga2 complex can be tethered to the surface of SPA beads coated with streptavidin (and also containing scintillant). Sag1p^21-352 is radiolabeled with, e.g., ^125I or ^3H, and is incubated with the Aga2-loaded beads. Binding of the fusion protein to the immobilized Aga2 protein brings the radiolabel in proximity to the scintillant contained within the beads, resulting in the emission of light. This emission can be readily quantitated using a scintillation counter. The presence of light indicates the presence of the Aga2 protein, and thus that the pheromone response pathway was activated in the yeast cells by the test compound via the G protein coupled receptor.
The following experiment was conducted in order to test the utility of the scintillation proximity assay for the detection of Aga2p induction mediated by heterologous receptors in yeast. […] One hundred microliter aliquots of culture media were placed into a 96-well plate and the following solutions were added to each well: 20 μl of 0.5 M sodium phosphate, pH 6.0, 1.5 M sodium chloride, 1% Tween 20, 10% BSA; 0.25 μg of SPA beads (Amersham) coated with biotinylated HA.11 antibodies (BAbCo) in 25 μl of PBS (20 mM sodium phosphate, pH 7.2, 0.15 M sodium chloride) and 25 μl of PBS containing [1^25,]-Sag1p^21-352 (250,000 cpm). SPA beads were prepared as follows. Fifty milligrams of streptavidin-coated yttrium silicate beads were incubated in 2 ml of PBS containing 1% BSA, 0.1% Tween 20 and 0.5 mg biotinylated HA. 11 antibodies for 4 hr at room temperature. The beads were washed three times with PBS and resuspended in 1 ml of the same buffer. Sag1p^21-352 was iodinated according to standard protocols using lactoperoxidase.
Light emission was quantitated using a scintillation counter after incubation of the plate at room temperature for 1 hr, 2 hr and 6 hr.
A general note: Scintillation proximity formats need no separation of bound from free tracer.

Another experiment concerns the target T3, ML1a receptor (Homo sapiens, UniProt P48039).
T3 construct: expressed in transfected cells; host or cells: S. cerevisiae (CY17353 in A11/A12; aga1 mutant CY19890 in A13), plasmid Cp2695 (PGKp-ML1aR)
The experiment can be described thus: ELISA-like assay of endogenous Aga2 protein with Sag1p21-352. Format: cell-based. The following applies: yeast cells containing the ML1a receptor, peroxidase assay. As to the method:
(§3) Extraction of the endogenous Aga2 protein was effected with DTT, as before. Aliquots (25 microliters) of extracts were diluted with 75 microliters of 100 mM sodium bicarbonate, pH 9.5 and the resulting samples were incubated in 96-well polystyrene plates at 4° C. overnight.
(§4) After washing the plates three times with PBS, pH 6.5, supplemented with 0.1% Tween 20, samples were blocked with the same buffer containing 3% bovine serum albumin at 37° C. for 1 hour. After blocking, the plates were incubated subsequently with EndoH-treated Sag1p^21-352 solution (0.5 mg/ml), 1000-fold diluted anti-Xpress antibodies (Invitrogen) and 5000-fold diluted sheep anti-mouse IgG conjugated with horseradish peroxidase (Amersham Pharmacia Biotech). Both Sag1p^21-352 and antibodies were dissolved in PBS, pH 6.5 supplemented with 3% BSA. Each incubation was conducted at room temperature for 1 hr and was followed by three washes with PBS, pH 6.5, 0.1% Tween 20. Finally, the peroxidase activities in each well were determined using tetramethyl benzidine as a substrate. If the Aga2 protein were present in the plate, the Sag1p^21-352 should bind to it, the anti-Xpress antibody binds to the Sag1p^21-352 fusion protein, and the sheep anti-mouse IgG antibodies bind specifically to the anti-Xpress antibody.
On the technique in general: An ELISA detects its analyte on a solid surface through an enzyme-linked reagent.

The target of experiment [2] is T4, human melatonin 1a receptor (Homo sapiens, UniProt P48039).
T4 construct: expressed in transfected cells; host or cells: S. cerevisiae (CY17353 in A11/A12; aga1 mutant CY19890 in A13), plasmid Cp2695 (PGKp-ML1aR)
T4 sequence (P48039 whole entry): as above
The experiment can be described thus: Western blot of DTT-extracted Aga2-HA. The experiment is classed as cell-based. The following applies: increasing concentrations of ligand vs absence. As to the method: as §1
(In western blotting, separated proteins are transferred to a membrane and probed.)

For a further experiment, the target named is T5, Ste2 receptor (Saccharomyces cerevisiae, UniProt D6VTK4).
T5 construct: Yeast cells coexpressing either the endogenous yeast receptor Ste2p; endogenous in cells; host or cells: S. cerevisiae MATa cells (strain CY1892 in the Sag1p-based ELISA)
T5 sequence (D6VTK4 1-431): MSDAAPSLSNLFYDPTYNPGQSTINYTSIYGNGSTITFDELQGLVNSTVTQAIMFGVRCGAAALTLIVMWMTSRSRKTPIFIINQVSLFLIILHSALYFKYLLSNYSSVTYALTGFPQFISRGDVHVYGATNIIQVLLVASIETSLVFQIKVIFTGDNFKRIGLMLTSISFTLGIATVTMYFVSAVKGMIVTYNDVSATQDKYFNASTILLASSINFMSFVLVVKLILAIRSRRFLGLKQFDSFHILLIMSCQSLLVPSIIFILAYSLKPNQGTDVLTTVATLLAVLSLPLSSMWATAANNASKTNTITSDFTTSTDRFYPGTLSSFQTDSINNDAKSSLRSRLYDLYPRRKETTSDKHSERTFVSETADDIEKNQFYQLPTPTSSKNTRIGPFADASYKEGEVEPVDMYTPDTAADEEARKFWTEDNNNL
Briefly: ELISA-like assay of endogenous Aga2 protein with Sag1p21-352, anti-Xpress antibodies and HRP conjugate. The following applies: yeast cells containing the Ste2 receptor, peroxidase assay. Format: cell-based, S. cerevisiae. Here is the method:
as §3, §4

The target in experiment [3] is T6, Ste2p (Saccharomyces cerevisiae, UniProt D6VTK4).
T6 construct: Yeast cells coexpressing either the endogenous yeast receptor Ste2p; endogenous in cells; host or cells: S. cerevisiae MATa cells (strain CY1892 in the Sag1p-based ELISA)
T6 sequence (D6VTK4 1-431): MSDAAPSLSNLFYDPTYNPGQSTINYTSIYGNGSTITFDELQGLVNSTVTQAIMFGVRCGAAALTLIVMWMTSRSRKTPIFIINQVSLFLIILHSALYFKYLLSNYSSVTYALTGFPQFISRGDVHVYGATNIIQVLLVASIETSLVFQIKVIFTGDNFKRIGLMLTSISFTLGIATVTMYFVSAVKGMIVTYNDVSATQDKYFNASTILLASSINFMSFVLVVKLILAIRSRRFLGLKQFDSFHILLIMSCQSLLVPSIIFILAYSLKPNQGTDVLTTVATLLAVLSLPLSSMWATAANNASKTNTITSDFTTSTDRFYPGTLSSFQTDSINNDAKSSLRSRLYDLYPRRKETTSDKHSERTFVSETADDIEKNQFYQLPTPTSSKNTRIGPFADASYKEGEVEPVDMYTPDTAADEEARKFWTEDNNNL
Briefly: ELISA of DTT-extracted cell surface Aga2-HA induction (HA.11 antibody, HRP readout). The following applies: for HRP activity: yeast cells, Aga2-HA. Format: cell-based, S. cerevisiae. Here is the method:
as §1, §2

Experiment [4] addresses T6, Ste2p. Briefly: Western blot of DTT-extracted Aga2-HA. Format: cell-based, S. cerevisiae. The following applies: increasing concentrations of ligand vs absence. Here is the method:
as §1

Experiment [5] has as its system intact MATa cells (strain CY1892). Briefly: Binding of Sag1p21-352 to yeast cell surface (Western blot of SDS extracts). The following applies: cells with or without 100 nM α-factor; 30° C., 30 min. Details: species or system S. cerevisiae. Here is the method: To ensure that this truncation of the Sag1 protein retained full binding activity to α-agglutinin, and more specifically, the Aga2 protein, binding assays were performed. […] The cells (TOD600=1) were pelleted and resuspended in 0.15 ml of the same media supplemented with varying concentrations of Sag1p^21-352. After incubation at 30° C. for 30 min, the cells were washed three times with the same media and incubated in the presence of 2% SDS for 5 min to release Sag1p^21-352 bound to the cell surface. The SDS extracts were subjected to Western blot analysis. The immunoreactive bands corresponding to Sag1p^21-352 were visualized using anti-Xpress antibodies (Invitrogen), as above.

T1 sequence (P48039 whole entry): as the sequence (P48039 whole entry) above
T3 sequence (P48039 whole entry): as the sequence (P48039 whole entry) above

As to `COc1ccc2[nH]cc(CCNC(C)=O)c2c1` [melatonin], the HRP activity in experiment [1] ([Ligand] 1 × 10^−6 M) was 1.112; in experiment [1] ([Ligand] 1.13 × 10^−7 M) it was 0.829; in experiment [1] ([Ligand] 1.95 × 10^−9 M), 0.278; in experiment [1] ([Ligand] 3.13 × 10^−8 M) it was 0.767; in experiment [1] ([Ligand] 4.88 × 10^−10 M), 0.154; in experiment [1] ([Ligand] 5 × 10^−7 M) it was 1.216. In experiment [1] ([Ligand] 7.81 × 10^−9 M), the HRP activity came out at 0.427. Besides, the Induction factor in experiment [1] (cell surface Aga2-HA, ML1aR) amounted to 19; at ML1aR (incubation time 1 hr), 2.5; on ML1aR (incubation time 2 hr), 2.6; at ML1aR (incubation time 6 hr), 3.1. Further, on ML1aR (scintillation proximity assay), the “increase in the levels of HA-tagged Aga2p in the culture media” value was “approximately 3 fold”. At ML1a receptor, the “induction of the Aga2 protein” value is listed as “dose-dependent response”. Also, in experiment [2], the “expression level of the Aga2 protein” value is on record as “substantial increase”.
In the case of α-factor, the “induction of the Aga2 protein” value at Ste2 receptor is listed as “dose-dependent response”. Also, the HRP activity came to 2.163 on Ste2p [3] ([Ligand] 1.13 × 10^−7 M); 2.332 at Ste2p [3] ([Ligand] 2 × 10^−6 M); 0.548 at Ste2p [3] ([Ligand] 3.13 × 10^−8 M); 2.498 at Ste2p [3] ([Ligand] 5 × 10^−7 M); 0.280 at Ste2p [3] ([Ligand] 7.81 × 10^−9 M). For the same molecule, at Ste2p [3] (cell surface Aga2-HA, Ste2p), the Induction factor worked out at 15. For the same molecule, the “expression level of the Aga2 protein” value at Ste2p [4] was “substantial increase”.

B1: Sag1p^21-352: N-terminal portion of Sag1p (α-agglutinin, residues 21–352) bearing a polyhistidine tag, Xpress epitope and enterokinase cleavage site (protein)
chain: NINDITFSNLEITPLTANKQPDQGWTATFDFSIADASSIREGDEFTLSMPHVYRIKLLNSSQTATISLADGTEAFKCYVSQQAAYLYENTTFTCTAQNDLSSYNTIDGSITFSLNFSDGGSSYEYELENAKFFKSGPMLVKLGNQMSDVVNFDPAAFTENVFHSGRSTGYGSFESYHLGMYCPNGYFLGGTEKIDYDSSNNNVDLDCSSVQVYSSNDFNDWWFPQSYNDTNADVTCFGSNLWITLDEKLYDGEMLWVNALQSLPANVNTIDHALEFQYTCLDTIANTTYATQFSTTREFIVYQGRNLGTASAKSSFISTTTTDLTSINTSAY
modifications: left off: small tags and cut ends
As to B1, in experiment [5], the “binding to the cell surface of intact MATa cells” value was “bound to the cell surface of intact MATa cells only after these cells were treated with α-factor”.

Values taken from patent US7223533B2, “Cell surface proteins and use thereof as indicators of activation of cellular signal transduction pathways” (priority 1999, dated 2007).
